Assay results from US8178658B2 (Dow AgroSciences, LLC, priority 2008, dated 2012).

Assays:
[1] = test system: beet armyworm (BAW; Spodoptera exigua: Lepidoptera); assay: 96-well microtiter plate-based high throughput (HTS) diet bioassay on beet armyworm (BAW HTS); type: in vivo; settings: BAW eggs, 12 μg test compound per well, mortality at 6 d post-treatment, mortality class; for pest or weed control at 12 µg/well, 12 µg/well: Spodoptera exigua, 144 h, read-out: BAW HTS
Method in brief: (§1)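 Two diet-incorporation-style surface tests were run. Eggs infested treated diet (12 μg/well) in plates incubated dark at 29° C, with mortality taken on day 6 from six replicates. Separately, second-instar larvae fed on treated diet (50 μg/cm^2) at 25° C, 14:10 L:D, with six-day mortality averaged over eight wells.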

[2] = test system: beet armyworm (BAW; Spodoptera exigua: Lepidoptera); assay: 128-well diet tray assay on beet armyworm (BAW 50); type: in vivo; settings: 128-well diet tray assay, 50 μg/cm^2 of test compound on diet, second instar BAW larvae, mortality class; for pest or weed control at 50 µg/cm2, 50 µg/cm2: Spodoptera exigua, 144 h, read-out: BAW 50 ug/cm2
Method in brief: as §1

[3] = 96-well microtiter plate HTS diet assay

SMILES | BAW HTS ([1]; 96-well HTS diet assay) | BAW HTS [1, 3] | BAW 50 ug/cm2 [2] | pest or weed control at 12 µg/well, 12 µg/well ([1]; 96-well HTS diet assay) | pest or weed control at 50 µg/cm2, 50 µg/cm2 [2]
CCOC1C(OC)C(C)OC(ON=Cc2ccc(-c3ncc(-c4ccc(C)cc4)cn3)cc2)C1OC (centres unmarked) [Compound 150] | B (either (1) the compound was tested and less than 50 percent mortality was observed or (2) the compound was not tested) | B (either (1) the compound was tested and less than 50 percent mortality was observed or (2) the compound was not tested) | B (either (1) the compound was tested and less than 50 percent mortality was observed or (2) the compound was not tested) | – | –
CCOC1C(OC)C(C)OC(ON=Cc2ccc(-c3ncc(-c4ccc(C(F)(F)F)cc4)cn3)cc2)C1OC (centres unmarked) [Compound 151] | B (either (1) the compound was tested and less than 50 percent mortality was observed or (2) the compound was not tested) | B (either (1) the compound was tested and less than 50 percent mortality was observed or (2) the compound was not tested) | A (the compound was tested and at least 50 percent mortality was observed) | – | –
CCOC1C(OC)C(C)OC(ON=Cc2ccc(-c3ncc(-c4ccccc4C)cn3)cc2)C1OC (centres unmarked) [Compound 152] | B (either (1) the compound was tested and less than 50 percent mortality was observed or (2) the compound was not tested) | B (either (1) the compound was tested and less than 50 percent mortality was observed or (2) the compound was not tested) | A (the compound was tested and at least 50 percent mortality was observed) | – | –
CCOC1C(OC)C(C)OC(ON=Cc2ccc(-c3ncc(-c4ccc(F)cc4)cn3)cc2)C1OC (centres unmarked) [Compound 153] | B (either (1) the compound was tested and less than 50 percent mortality was observed or (2) the compound was not tested) | B (either (1) the compound was tested and less than 50 percent mortality was observed or (2) the compound was not tested) | A (the compound was tested and at least 50 percent mortality was observed) | – | –
CCOC1C(OC)C(C)OC(ON=Cc2ccc(-c3ncc(-c4ccc(C#N)cc4)cn3)cc2)C1OC (centres unmarked) [Compound 154] | B (either (1) the compound was tested and less than 50 percent mortality was observed or (2) the compound was not tested) | B (either (1) the compound was tested and less than 50 percent mortality was observed or (2) the compound was not tested) | A (the compound was tested and at least 50 percent mortality was observed) | – | –
CCOC1C(OC)C(C)OC(ON=Cc2ccc(-c3ncc(-c4ccccc4OC(F)(F)F)cn3)cc2)C1OC (centres unmarked) [Compound 156] | B (either (1) the compound was tested and less than 50 percent mortality was observed or (2) the compound was not tested) | B (either (1) the compound was tested and less than 50 percent mortality was observed or (2) the compound was not tested) | A (the compound was tested and at least 50 percent mortality was observed) | – | –
COC1C(C)OC(ON=Cc2ccc(-c3ncnc(-c4ccc(C(F)(F)F)cc4)n3)cc2)C(OC)C1OC (centres unmarked) [Compound 157] | A (the compound was tested and at least 50 percent mortality was observed) | A (the compound was tested and at least 50 percent mortality was observed) | B (either (1) the compound was tested and less than 50 percent mortality was observed or (2) the compound was not tested) | – | –
COC1C(C)OC(ON=Cc2ccc(-c3ncnc(-c4ccc(OC(F)(F)F)cc4)n3)cc2)C(OC)C1OC (centres unmarked) [Compound 158] | A (the compound was tested and at least 50 percent mortality was observed) | A (the compound was tested and at least 50 percent mortality was observed) | A (the compound was tested and at least 50 percent mortality was observed) | – | –
COC1C(C)OC(ON=Cc2ccc(-c3cncc(-c4ccc(OC(F)(F)F)cc4)n3)cc2)C(OC)C1OC (centres unmarked) [Compound 159] | A (the compound was tested and at least 50 percent mortality was observed) | A (the compound was tested and at least 50 percent mortality was observed) | A (the compound was tested and at least 50 percent mortality was observed) | – | –
CCOC1C(OC)C(C)OC(ON=Cc2ccc(N3CCN(c4ccc(OC(F)(F)F)cc4)CC3)nc2)C1OC (centres unmarked) [Compound 160] | A (the compound was tested and at least 50 percent mortality was observed) | A (the compound was tested and at least 50 percent mortality was observed) | A (the compound was tested and at least 50 percent mortality was observed) | – | –
CCOC1C(OC)C(C)OC(ON=Cc2ccc(N3CCN(c4ccc(C(F)(F)F)cn4)CC3)cc2)C1OC (centres unmarked) [Compound 161] | A (the compound was tested and at least 50 percent mortality was observed) | A (the compound was tested and at least 50 percent mortality was observed) | A (the compound was tested and at least 50 percent mortality was observed) | – | –
CCCOC1C(OC)C(C)OC(ON=Cc2ccc(N3CCN(c4ccc(OC(F)(F)F)cc4)CC3)cc2)C1OC (centres unmarked) [Compound 162] | B (either (1) the compound was tested and less than 50 percent mortality was observed or (2) the compound was not tested) | B (either (1) the compound was tested and less than 50 percent mortality was observed or (2) the compound was not tested) | A (the compound was tested and at least 50 percent mortality was observed) | – | –
CCOC1C(OC)C(C)OC(ON=Cc2ccc(-c3ncc(-c4ccc(SC)cc4)cn3)cc2)C1OC (centres unmarked) [Compound 163] | B (either (1) the compound was tested and less than 50 percent mortality was observed or (2) the compound was not tested) | B (either (1) the compound was tested and less than 50 percent mortality was observed or (2) the compound was not tested) | B (either (1) the compound was tested and less than 50 percent mortality was observed or (2) the compound was not tested) | – | –
COC1C(C)OC(ON=C(C)c2ccc(-c3cn(-c4ccc(OC(F)(F)F)cc4)cn3)s2)C(OC)C1OC (centres unmarked) [Compound 164] | B (either (1) the compound was tested and less than 50 percent mortality was observed or (2) the compound was not tested) | B (either (1) the compound was tested and less than 50 percent mortality was observed or (2) the compound was not tested) | B (either (1) the compound was tested and less than 50 percent mortality was observed or (2) the compound was not tested) | – | –
COC1C(C)OC(ON=C(C)c2ccc(-c3cn(-c4ccc(OC(F)(F)F)cc4)cn3)cc2)C(OC)C1OC (centres unmarked) [Compound 165] | B (either (1) the compound was tested and less than 50 percent mortality was observed or (2) the compound was not tested) | B (either (1) the compound was tested and less than 50 percent mortality was observed or (2) the compound was not tested) | A (the compound was tested and at least 50 percent mortality was observed) | – | –
COC1C(C)OC(ON=C(C)c2cccc(-c3cn(-c4ccc(OC(F)(F)F)cc4)cn3)c2)C(OC)C1OC (centres unmarked) [Compound 166] | B (either (1) the compound was tested and less than 50 percent mortality was observed or (2) the compound was not tested) | B (either (1) the compound was tested and less than 50 percent mortality was observed or (2) the compound was not tested) | A (the compound was tested and at least 50 percent mortality was observed) | – | –
COC1C(C)OC(ON=C(C)c2ccc(Cl)c(-c3cn(-c4ccc(OC(F)(F)F)cc4)cn3)c2)C(OC)C1OC (centres unmarked) [Compound 167] | B (either (1) the compound was tested and less than 50 percent mortality was observed or (2) the compound was not tested) | B (either (1) the compound was tested and less than 50 percent mortality was observed or (2) the compound was not tested) | A (the compound was tested and at least 50 percent mortality was observed) | – | –
COC1C(C)OC(ON=C(C)c2ccc(F)c(-c3cn(-c4ccc(OC(F)(F)F)cc4)cn3)c2)C(OC)C1OC (centres unmarked) [Compound 168] | A (the compound was tested and at least 50 percent mortality was observed) | A (the compound was tested and at least 50 percent mortality was observed) | A (the compound was tested and at least 50 percent mortality was observed) | – | –
CCO[C@@H]1[C@@H](OC)[C@H](C)O[C@@H](O/N=C2\CCc3cc(-c4ncn(-c5ccc(OC(F)(F)F)cc5)n4)ccc32)[C@@H]1OC [Compound 170, 5-[1-(4-trifluoromethoxyphenyl)-1H-[1,2,4]triazol-3-yl]-indan-1-one O-((2S,3R,4R,5S,6S)-4-ethoxy-3,5-dimethoxy-6-methyl-tetrahydropyran-2-yl)-oxime] | – | B (either (1) the compound was tested and less than 50 percent mortality was observed or (2) the compound was not tested) | A (the compound was tested and at least 50 percent mortality was observed) | < 50% | > 50%
CO[C@@H]1[C@@H](OC)[C@H](C)O[C@@H](ONC(=O)c2ccc(-c3cn(-c4ccc(OC(F)(F)F)cc4)cn3)cc2)[C@@H]1OC [Compound 171, 4-[1-(4-trifluoromethoxyphenyl)-1H-imidazol-4-yl]-N-((2S,3R,4R,5S,6S)-3,4,5-trimethoxy-6-methyl-tetrahydropyran-2-yloxy)-benzamide] | – | A (the compound was tested and at least 50 percent mortality was observed) | A (the compound was tested and at least 50 percent mortality was observed) | > 50% | > 50%
